# Target: IKZF2 (Helios) (Homo sapiens, UniProt Q96SW2+Q9UKS7)
# Assay: Prolabel quantification of IKZF2 protein levels in 293GT cells
# Format: cell-based
# Details: 24 h, Pro-label assay, 293GT cells, 10 μM, read-out: IKZF2 % protein reduction at 10 μM, 24 h
# IKZF2 (Helios), sequence (Q9UKS7 whole entry): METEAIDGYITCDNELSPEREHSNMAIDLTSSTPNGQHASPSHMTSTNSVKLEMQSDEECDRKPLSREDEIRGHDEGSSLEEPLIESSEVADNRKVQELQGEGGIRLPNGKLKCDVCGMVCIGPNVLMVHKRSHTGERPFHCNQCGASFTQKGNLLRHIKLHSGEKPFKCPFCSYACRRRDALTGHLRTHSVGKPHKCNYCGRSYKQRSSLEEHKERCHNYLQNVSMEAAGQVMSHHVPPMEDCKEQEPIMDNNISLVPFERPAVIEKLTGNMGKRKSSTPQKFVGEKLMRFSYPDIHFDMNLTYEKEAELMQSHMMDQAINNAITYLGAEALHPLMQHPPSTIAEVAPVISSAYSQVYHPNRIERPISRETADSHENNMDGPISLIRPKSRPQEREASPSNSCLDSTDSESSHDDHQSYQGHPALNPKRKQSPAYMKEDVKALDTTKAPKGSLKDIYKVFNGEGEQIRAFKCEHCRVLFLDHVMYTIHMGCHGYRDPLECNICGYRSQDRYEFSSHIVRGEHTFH
# IKZF2 (Helios), sequence (Q96SW2 whole entry): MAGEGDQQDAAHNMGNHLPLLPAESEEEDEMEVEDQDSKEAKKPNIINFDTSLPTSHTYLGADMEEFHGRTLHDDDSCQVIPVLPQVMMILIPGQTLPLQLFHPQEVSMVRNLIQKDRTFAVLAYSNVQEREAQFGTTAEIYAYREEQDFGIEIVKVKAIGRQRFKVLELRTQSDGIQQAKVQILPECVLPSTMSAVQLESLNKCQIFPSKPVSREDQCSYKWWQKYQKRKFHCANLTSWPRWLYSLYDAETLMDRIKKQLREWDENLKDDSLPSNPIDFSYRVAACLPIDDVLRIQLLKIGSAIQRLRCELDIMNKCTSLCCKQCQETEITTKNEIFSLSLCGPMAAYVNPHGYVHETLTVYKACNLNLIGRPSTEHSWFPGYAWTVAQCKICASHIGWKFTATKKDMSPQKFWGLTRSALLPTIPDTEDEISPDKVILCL
# IKZF2 (Helios), sequence (Q16531 whole entry partner): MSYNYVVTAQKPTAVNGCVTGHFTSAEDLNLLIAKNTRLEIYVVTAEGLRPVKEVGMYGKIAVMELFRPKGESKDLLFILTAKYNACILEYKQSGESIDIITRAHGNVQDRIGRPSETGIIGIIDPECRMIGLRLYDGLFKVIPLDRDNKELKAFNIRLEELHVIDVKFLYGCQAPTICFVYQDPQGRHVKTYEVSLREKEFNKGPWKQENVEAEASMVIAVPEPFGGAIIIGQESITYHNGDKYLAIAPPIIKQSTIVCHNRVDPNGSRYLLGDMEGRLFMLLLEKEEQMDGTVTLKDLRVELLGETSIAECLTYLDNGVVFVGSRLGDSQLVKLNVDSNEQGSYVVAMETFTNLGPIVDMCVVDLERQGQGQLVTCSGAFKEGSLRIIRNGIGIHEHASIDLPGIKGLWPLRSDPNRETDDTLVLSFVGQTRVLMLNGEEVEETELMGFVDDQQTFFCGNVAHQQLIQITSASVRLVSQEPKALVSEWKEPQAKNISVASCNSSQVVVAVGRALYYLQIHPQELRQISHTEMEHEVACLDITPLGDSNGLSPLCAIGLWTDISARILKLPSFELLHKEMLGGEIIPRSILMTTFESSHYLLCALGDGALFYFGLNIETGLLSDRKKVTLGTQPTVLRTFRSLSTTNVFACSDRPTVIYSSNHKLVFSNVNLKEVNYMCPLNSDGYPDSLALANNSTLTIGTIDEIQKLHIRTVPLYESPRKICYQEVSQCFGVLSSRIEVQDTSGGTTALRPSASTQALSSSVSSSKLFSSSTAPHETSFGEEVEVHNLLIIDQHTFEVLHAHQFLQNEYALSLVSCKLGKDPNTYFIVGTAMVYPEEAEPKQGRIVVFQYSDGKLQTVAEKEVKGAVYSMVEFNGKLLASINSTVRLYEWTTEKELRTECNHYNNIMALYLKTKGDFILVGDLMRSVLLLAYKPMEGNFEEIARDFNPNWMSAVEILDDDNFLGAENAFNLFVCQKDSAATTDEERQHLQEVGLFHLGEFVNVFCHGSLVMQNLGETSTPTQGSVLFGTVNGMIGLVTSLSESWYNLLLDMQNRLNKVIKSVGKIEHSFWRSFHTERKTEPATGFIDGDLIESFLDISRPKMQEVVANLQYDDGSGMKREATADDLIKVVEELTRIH
row,SMILES,IKZF2 % protein reduction at 10 µM [%]
1,"COc1ccccc1OC1CN([C@H]2CCCC[C@@H]2Oc2ccc3c(c2)CN(C2CCC(=O)NC2=O)C3=O)C1 (stereo partly drawn) [I-113, 3-(5-(((1S,2S)-2-(3-(2-methoxyphenoxy)azetidin-1-yl)cyclohexyl)oxy)-1-oxoisoindolin-2-yl)piperidine-2,6-dione]",93
2,"O=C1CCC(N2Cc3cc(O[C@H]4CCCC[C@@H]4NCc4cnc5ccnn5c4)ccc3C2=O)C(=O)N1 (stereo partly drawn) [I-114, 3-(1-oxo-5-(((1S,2S)-2-((pyrazolo[1,5-a]pyrimidin-6-ylmethyl)amino)cyclohexyl)oxy)isoindolin-2-yl)piperidine-2,6-dione]",54
3,"O=C1CCC(N2Cc3cc(O[C@H]4CCCC[C@@H]4NC4CCC(F)(F)CC4)ccc3C2=O)C(=O)N1 (stereo partly drawn) [I-115, 3-(5-(((1S,2S)-2-((4,4-difluorocyclohexyl)amino)cyclohexyl)oxy)-1-oxoisoindolin-2-yl)piperidine-2,6-dione]",90
4,"O=C1CCC(N2Cc3cc(O[C@H]4CCCC[C@@H]4NCc4ccc(F)cc4F)ccc3C2=O)C(=O)N1 (stereo partly drawn) [I-116, 3-(5-(((1S,2S)-2-((2,4-difluorobenzyl)amino)cyclohexyl)oxy)-1-oxoisoindolin-2-yl)piperidine-2,6-dione]",65
5,"N#CC12CC(CN[C@H]3CCCC[C@@H]3Oc3ccc4c(c3)CN(C3CCC(=O)NC3=O)C4=O)(C1)C2 (stereo partly drawn) [I-120, 3-((((1S,2S)-2-((2-(2,6-dioxopiperidin-3-yl)-1-oxoisoindolin-5-yl)oxy)cyclohexyl)amino)methyl)bicyclo[1.1.1]pentane-1-carbonitrile]",66
6,"O=C1CCC(N2Cc3cc(O[C@H]4CCCC[C@@H]4N4CC(Oc5cccc(F)c5)C4)ccc3C2=O)C(=O)N1 (stereo partly drawn) [I-121, 3-(5-(((1S,2S)-2-(3-(3-fluorophenoxy)azetidin-1-yl)cyclohexyl)oxy)-1-oxoisoindolin-2-yl)piperidine-2,6-dione]",94
7,"O=C1CCC(N2Cc3cc(O[C@H]4CCCC[C@@H]4NCC4CC(F)(F)C4)ccc3C2=O)C(=O)N1 (stereo partly drawn) [I-122, 3-(5-(((1S,2S)-2-(((3,3-difluorocyclobutyl)methyl)amino)cyclohexyl)oxy)-1-oxoisoindolin-2-yl)piperidine-2,6-dione]",84
8,"COC1CCC(CN[C@H]2CCCC[C@@H]2Oc2ccc3c(c2)CN(C2CCC(=O)NC2=O)C3=O)CC1 (stereo partly drawn) [I-123, 3-(5-(((1S,2S)-2-(((4-methoxycyclohexyl)methyl)amino)cyclohexyl)oxy)-1-oxoisoindolin-2-yl)piperidine-2,6-dione]",82
9,"N#Cc1ccc(CN[C@H]2CCCC[C@@H]2Oc2ccc3c(c2)CN(C2CCC(=O)NC2=O)C3=O)cc1 (stereo partly drawn) [I-129, 4-((((1S,2S)-2-((2-(2,6-dioxopiperidin-3-yl)-1-oxoisoindolin-5-yl)oxy)cyclohexyl)amino)methyl)benzonitrile]",70
10,"CN(Cc1ccc(C#N)cc1)[C@H]1CCCC[C@@H]1Oc1ccc2c(c1)CN(C1CCC(=O)NC1=O)C2=O (stereo partly drawn) [I-130, 4-((((1S,2S)-2-((2-(2,6-dioxopiperidin-3-yl)-1-oxoisoindolin-5-yl)oxy)cyclohexyl)(methyl)amino)methyl)benzonitrile]",50
11,"N#Cc1cccc(CN[C@H]2CCCC[C@@H]2Oc2ccc3c(c2)CN(C2CCC(=O)NC2=O)C3=O)c1 (stereo partly drawn) [I-132, 3-((((1S,2S)-2-((2-(2,6-dioxopiperidin-3-yl)-1-oxoisoindolin-5-yl)oxy)cyclohexyl)amino)methyl)benzonitrile]",80
12,"O=C1CCC(N2Cc3cc(O[C@H]4CCCC[C@@H]4NCC45CC(F)(C4)C5)ccc3C2=O)C(=O)N1 (stereo partly drawn) [I-133, 3-(5-(((1S,2S)-2-(((3-fluorobicyclo[1.1.1]pentan-1-yl)methyl)amino)cyclohexyl)oxy)-1-oxoisoindolin-2-yl)piperidine-2,6-dione]",81
13,"CCN(CC12CC(F)(C1)C2)[C@H]1CCC[C@@H]1Oc1ccc2c(c1)CN(C1CCC(=O)NC1=O)C2=O (stereo partly drawn) [I-136, 3-(5-(((1S,2S)-2-(ethyl((3-fluorobicyclo[1.1.1]pentan-1-yl)methyl)amino)cyclopentyl)oxy)-1-oxoisoindolin-2-yl)piperidine-2,6-dione]",58
14,"O=C1CCC(N2Cc3cc(O[C@H]4CCC[C@@H]4NCc4ccccn4)ccc3C2=O)C(=O)N1 (stereo partly drawn) [I-145, 3-(1-oxo-5-(((1S,2S)-2-((pyridin-2-ylmethyl)amino)cyclopentyl)oxy)isoindolin-2-yl)piperidine-2,6-dione]",52

# Further lines, results first:
row,IKZF2 % protein reduction at 10 µM [%],SMILES
1,91,"CC(C)N[C@H]1CCCC[C@@H]1Oc1ccc2c(c1)CN(C1CCC(=O)NC1=O)C2=O (stereo partly drawn) [I-131, 3-(5-(((1S,2S)-2-(isopropylamino)cyclohexyl)oxy)-1-oxoisoindolin-2-yl)piperidine-2,6-dione]"
2,92,"O=C1CCC(N2Cc3cc(O[C@H]4CCCC[C@@H]4N4CC(Oc5cccnc5)C4)ccc3C2=O)C(=O)N1 (stereo partly drawn) [I-135, 3-(1-oxo-5-(((1S,2S)-2-(3-(pyridin-3-yloxy)azetidin-1-yl)cyclohexyl)oxy)isoindolin-2-yl)piperidine-2,6-dione]"
3,80,"O=C1CCN([C@H]2CCC[C@@H]2Oc2ccc3c(c2)CN(C2CCC(=O)NC2=O)C3=O)CC1 (stereo partly drawn) [I-137, 3-(1-oxo-5-(((1S,2S)-2-(4-oxopiperidin-1-yl)cyclopentyl)oxy)isoindolin-2-yl)piperidine-2,6-dione]"
4,83,"CC1(O)CCN([C@H]2CCC[C@@H]2Oc2ccc3c(c2)CN(C2CCC(=O)NC2=O)C3=O)CC1 (stereo partly drawn) [I-138, 3-(5-(((1S,2S)-2-(4-hydroxy-4-methylpiperidin-1-yl)cyclopentyl)oxy)-1-oxoisoindolin-2-yl)piperidine-2,6-dione]"
5,83,"O=C1CCC(N2Cc3cc(O[C@H]4CCC[C@@H]4N4CCC(O)C4)ccc3C2=O)C(=O)N1 (stereo partly drawn) [I-139, 3-(5-(((1S,2S)-2-(3-hydroxypyrrolidin-1-yl)cyclopentyl)oxy)-1-oxoisoindolin-2-yl)piperidine-2,6-dione]"
6,77,"CC1(O)CN([C@H]2CCC[C@@H]2Oc2ccc3c(c2)CN(C2CCC(=O)NC2=O)C3=O)C1 (stereo partly drawn) [I-141, 3-(5-(((1S,2S)-2-(3-hydroxy-3-methylazetidin-1-yl)cyclopentyl)oxy)-1-oxoisoindolin-2-yl)piperidine-2,6-dione]"
7,83,"CC(C)CN[C@H]1CCC[C@@H]1Oc1ccc2c(c1)CN(C1CCC(=O)NC1=O)C2=O (stereo partly drawn) [I-142, 3-(5-(((1S,2S)-2-(isobutylamino)cyclopentyl)oxy)-1-oxoisoindolin-2-yl)piperidine-2,6-dione]"
8,81,"CCN(C)[C@H]1CCC[C@@H]1Oc1ccc2c(c1)CN(C1CCC(=O)NC1=O)C2=O (stereo partly drawn) [I-143, 3-(5-(((1S,2S)-2-(ethyl(methyl)amino)cyclopentyl)oxy)-1-oxoisoindolin-2-yl)piperidine-2,6-dione]"
9,88,"O=C1CCC(N2Cc3cc(O[C@H]4CCC[C@@H]4N4C[C@H]5COC[C@H]5C4)ccc3C2=O)C(=O)N1 (stereo partly drawn) [I-144, 3-(1-oxo-5-(((1S,2S)-2-((3aR,6aS)-tetrahydro-1H-furo[3,4-c]pyrrol-5(3H)-yl)cyclopentyl)oxy)isoindolin-2-yl)piperidine-2,6-dione]"

# — patent publication US11192877B2, “3-(5-hydroxy-1-oxoisoindolin-2-yl)piperidine-2,6-dione derivatives and uses thereof” (Novartis AG, priority 2018, dated 2021)
